Literature values as cited in patent US7276500B2, “Substituted amides, their preparation and use” (Abbott GmbH & Co. KG, priority 1998, dated 2007).
Blank lines part the entries; values can stand above or below the compound they belong to.

What was measured:
cell membranes = settings: literature statement
calpain = settings: literature statement
[1] = tested on: calpain (cleavage of pp60src in platelets); settings: Oda et al., J. Biol. Chem. 1993

crossing of cell membranes (cell membranes): cross cell membranes only poorly
Compound: CC(C)C[C@H](NC(=O)[C@H]1O[C@@H]1C(=O)O)C(=O)NCCCCN=C(N)N [E 64]
effect on cells (cell membranes): only a poor effect on cells
calpain inhibition (calpain): good calpain inhibitors

Compound: CCCC[C@@H](C=O)NC(=O)[C@H](CC(C)C)NC(=O)OCc1ccccc1 [calpeptin]
cleavage of pp60src after activation of platelets [1]: can be prevented

Compound: CC(=O)N[C@@H](CC(C)C)C(=O)N[C@@H](CC(C)C)C(=O)N[C@H](C=O)CCCNC(=N)N [leupeptin]
crossing of cell membranes (cell membranes): cross cell membranes only poorly
effect on cells (cell membranes): only a poor effect on cells
calpain inhibition (calpain): good calpain inhibitors

Compound: Ph—CONH—CH(CH2Ph)—CO—COCOOCH3
calpain inhibition (calpain): only a weak calpain inhibitor
